Measurements: PubChem BioAssay AID743491 (The Scripps Research Institute Molecular Screening Center, 2014)
Activity calls are given as the source filed them. No rule for the calls is given here.

molecular target: Trace amine-associated receptor 1 (Homo sapiens) (UniProt Q96RJ0); test: TAAR1 agonists, concentration-response, dose response, cell-based, fluorescence, MedChem round 1 (AID 743491); details: cells expressing human TAAR1, fluorescence agonist read-out
Sequence (Q96RJ0 whole entry, looked up): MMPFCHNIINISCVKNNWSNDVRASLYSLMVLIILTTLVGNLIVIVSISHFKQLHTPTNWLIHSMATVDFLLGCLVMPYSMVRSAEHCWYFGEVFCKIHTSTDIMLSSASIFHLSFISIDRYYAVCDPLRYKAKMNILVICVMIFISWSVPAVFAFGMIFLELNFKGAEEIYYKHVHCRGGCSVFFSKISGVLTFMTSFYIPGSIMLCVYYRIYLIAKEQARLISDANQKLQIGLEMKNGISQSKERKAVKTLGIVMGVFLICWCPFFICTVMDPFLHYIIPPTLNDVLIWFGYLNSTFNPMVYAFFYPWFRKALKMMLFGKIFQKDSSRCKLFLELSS

EC50	SMILES
> 29900 nM (inactive)	O=C(CCN1C[C@@H](C(=O)O)[C@H](c2cccc(F)c2)C1)NC1CC1
678 nM	CC(CN1CCCC1Cc1ccccc1)C(=O)c1ccc2c(c1)OCCO2 (stereo unspecified)
> 29900 nM (inactive)	O=C(CCN1CCC(O)(c2ccccc2)C1)c1ccc2c(c1)OCCO2 (stereo unspecified)
inactive	CC(CN1CCC(c2ccccc2)C1)C(=O)c1ccc2c(c1)OCCO2 (stereo unspecified)
174 nM	O=C(CCN1CCC(c2ccccc2)C1)c1ccccc1 (stereo unspecified)
114 nM	Cc1ccc(C(=O)CCN2CCC(c3ccccc3)C2)cc1 (stereo unspecified)

The next lines start with the compound.

SMILES	EC50
CC1CN(CCC(=O)c2ccc3c(c2)OCCO3)CC1c1ccccc1 (stereo unspecified)	378 nM
NC(=O)CCN1C[C@H](c2ccccc2)[C@@H]2[C@H]1C1CCN2CC1	> 29900 nM (inactive)
O=C(CCN1C[C@@H](C(=O)O)[C@H](c2ccccc2)C1)NCc1cccs1	> 29900 nM (inactive)
O=C(CCN1C[C@@H](C(=O)O)[C@H](c2ccccc2)C1)NC1CCCC1	> 29900 nM (inactive)
O=C(CCN1CCC(O)(c2ccc(F)cc2)C1)c1ccc2c(c1)OCCO2 (stereo unspecified)	> 29900 nM (inactive)
